Results from ChEMBL document CHEMBL1811769, “Bioactive 11,20-epoxy-3,5(16)-diene briarane diterpenoids from the South China Sea gorgonian Dichotella gemmacea” (J Nat Prod, 2011).
The source made the active and inactive calls. The rule behind the calls is not given here.

Columns and labels:
Priestia megaterium = test: Antibacterial activity against Bacillus megaterium at 0.05 mg by agar diffusion method; format: functional; conditions: for zone of inhibition at 50 µg/disc: read-out: DIZ
Zymoseptoria tritici = test: Antifungal activity against Septoria tritici at 0.05 mg by agar diffusion method; format: functional; conditions: for zone of inhibition at 50 µg/disc: read-out: DIZ
Escherichia coli = test: Antibacterial activity against Escherichia coli at 0.05 mg by agar diffusion method; format: functional; conditions: for zone of inhibition at 50 µg/disc: read-out: DIZ
Microbotryum violaceum = test: Antifungal activity against Microbotryum violaceum at 0.05 mg by agar diffusion method; format: functional; conditions: for zone of inhibition at 50 µg/disc: read-out: DIZ
A549 = test: Growth inhibition of human A549 cells by MTT assay; format: functional, cell-based
MG-63 = test: Growth inhibition of human MG63 cells by MTT assay; format: functional, cell-based

Structure (SMILES)	diameter of the inhibition zone (DIZ) (Priestia megaterium)	diameter of the inhibition zone (DIZ) (Zymoseptoria tritici)	diameter of the inhibition zone (DIZ) (Escherichia coli)	diameter of the inhibition zone (DIZ) (Microbotryum violaceum)	IC50 (A549) [µM]	IC50 (MG-63) [µM]	zone of inhibition at 50 µg/disc (Priestia megaterium) [mm]	zone of inhibition at 50 µg/disc (Zymoseptoria tritici) [mm]	zone of inhibition at 50 µg/disc (Escherichia coli) [mm]	zone of inhibition at 50 µg/disc (Microbotryum violaceum) [mm]
C=C1/C=C/[C@H](OC(C)=O)[C@@]2(C)[C@@H](OC(C)=O)[C@@H](OC(=O)CC(C)C)[C@@H](OC(C)=O)[C@]3(CO3)[C@@H]2[C@H](OC(C)=O)[C@]2(O)[C@@H](C)C(=O)O[C@H]2[C@H]1Cl	inactive	inactive	inactive	inactive						
C=C1/C=C/[C@H](OC(C)=O)[C@@]2(C)[C@@H](OC(C)=O)C[C@@H](OC(=O)CC(C)C)[C@]3(CO3)[C@@H]2[C@H](OC(C)=O)[C@]2(O)[C@@H](C)C(=O)O[C@H]2[C@H]1Cl [GEMMACOLIDE I]	inactive	inactive	inactive	inactive	20.6	25				
C=C1/C=C/[C@H](OC(C)=O)[C@@]2(C)[C@@H](OC(C)=O)CC[C@]3(CO3)[C@@H]2[C@H](OC(C)=O)[C@]2(O)[C@@H](C)C(=O)O[C@H]2[C@H]1Cl	inactive	inactive	inactive	inactive						
CC1(C)S[C@@H]2[C@H](NC(=O)Cc3ccccc3)C(=O)N2[C@H]1C(=O)O [PENICILLIN G]							26	12	8	14
COc1cccc2c1C(=O)c1c(O)c3c(c(O)c1C2=O)C[C@@](O)(C(=O)CO)C[C@@H]3O[C@H]1C[C@H](N)[C@H](O)[C@H](C)O1 [DOXORUBICIN]					2.8	2.8				
C=C1/C=C/[C@H](OC(C)=O)[C@@]2(C)[C@@H](OC(C)=O)[C@@H](OC(C)=O)[C@@H](OC(=O)CC(C)C)[C@]3(CO3)[C@@H]2[C@H](OC(C)=O)[C@]2(O)[C@@H](C)C(=O)O[C@H]2[C@H]1Cl [GEMMACOLIDE J]					< 1.4	79.8	16			
CN[C@@H]1[C@H](O[C@H]2[C@H](O[C@H]3[C@H](O)[C@@H](O)[C@H](N=C(N)N)[C@@H](O)[C@@H]3N=C(N)N)O[C@@H](C)[C@]2(O)C=O)O[C@@H](CO)[C@H](O)[C@H]1O [STREPTOMYCIN]							11	11	18	16
C=C1/C=C/[C@H](OC(C)=O)[C@@]2(C)[C@@H](OC(C)=O)[C@@H](OC(C)=O)[C@@H](OC(C)=O)[C@]3(CO3)[C@@H]2[C@H](OC(C)=O)[C@]2(O)[C@@H](C)C(=O)O[C@H]2[C@H]1Cl [GEMMACOLIDE G]	inactive	inactive	inactive	inactive	8.4	38.4				
C=C1/C=C/[C@H](OC(C)=O)[C@@]2(C)[C@@H](OC(C)=O)C[C@@H](OC(C)=O)[C@]3(CO3)[C@@H]2[C@H](OC(C)=O)[C@]2(O)[C@@H](C)C(=O)O[C@H]2[C@H]1Cl [GEMMACOLIDE H]	inactive	inactive	inactive	inactive	47.3	54				
CC(=O)N1CCN(c2ccc(OCC3COC(Cn4ccnc4)(c4ccc(Cl)cc4Cl)O3)cc2)CC1 (stereo not drawn) [KETOCONAZOLE]							18	25	18	30
